ChEMBL document CHEMBL3885861, “Open TG-GATES”

Species: Rattus norvegicus
Assay: Open TG-GATES - Regimen: Single
Assay type: toxicity, organism-based, Sprague-Dawley
Parameters: regimen Single, gender Male, age 6 weeks
Settings: in vivo, po, route gavage; for APTT / Bas / Eos / Fbg / Hb / Ht / Lym / MCH / MCHC / MCV / Mono / Neu / PT / Plat / RBC / Ret / WBC: tissue Blood; for KIDNEY_L / KIDNEY_R / KIDNEY_TOTAL: tissue Kidney; for LIVER: tissue Liver; for ALP / ALT / AST / BUN / CRE / Ca / DBIL / GLC / K / LDH / Na / PL / RALB / TBIL / TC / TG / TP / gamma-GTP / IP: tissue Plasma
[1] = 0 mg/kg, 3 h, dose level Control
[2] = 0 mg/kg, 6 h, dose level Control
[3] = 0 mg/kg, 9 h, dose level Control
[4] = 0 mg/kg, 24 h, dose level Control

Structure (SMILES): Oc1ncnc2[nH]ncc12 [ALLOPURINOL]
- TERMINAL_BW [1]: 209.8 g
- APTT [1]: 16.7 s
- Bas [1]: 0%
- Eos [1]: 0.8%
- Fbg [1]: 211 mg/dL
- Hb [1]: 14 g/dL
- Ht [1]: 41.7%
- Lym [1]: 73.2%
- MCH [1]: 21.9 pg
- MCHC [1]: 33.7%
- MCV [1]: 65.1 fL
- Mono [1]: 7.4%
- Neu [1]: 18.6%
- PT [1]: 12.3 s
- Plat [1]: 111.5 x10_4/uL
- RBC [1]: 641.2 x10_4/ul
- Ret [1]: 8.1%
- WBC [1]: 95.8 x10_2/uL
- KIDNEY_L [1]: 1 g
- KIDNEY_R [1]: 1 g
- KIDNEY_TOTAL [1]: 1.9 g
- LIVER [1]: 10.1 g
- ALP [1]: 925 IU/L
- ALT [1]: 30.8 IU/L
- AST [1]: 60 IU/L
- BUN [1]: 12 mg/dL
- CRE [1]: 0.5 mg/dL
- Ca [1]: 10.9 mg/dL
- DBIL [1]: 0.058 mg/dL
- GLC [1]: 189.4 mg/dL
- K [1]: 4.8 meq/L
- LDH [1]: 96.6 IU/L
- Na [1]: 139.2 meq/L
- PL [1]: 137.4 mg/dL
- RALB [1]: 3.7 g/dL
- TBIL [1]: 0.4 mg/dL
- TC [1]: 71.8 mg/dL
- TG [1]: 59.4 mg/dL
- TP [1]: 5.6 g/dL
- gamma-GTP [1]: 1.4 IU/L
- TERMINAL_BW [2]: 210 g
- APTT [2]: 16.3 s
- Bas [2]: 0%
- Eos [2]: 1%
- Fbg [2]: 212.6 mg/dL
- Hb [2]: 14.1 g/dL
- Ht [2]: 42%
- Lym [2]: 80%
- MCH [2]: 22.2 pg
- MCHC [2]: 33.4%
- MCV [2]: 66.3 fL
- Mono [2]: 5.6%
- Neu [2]: 13.6%
- PT [2]: 12.3 s
- Plat [2]: 111.5 x10_4/uL
- RBC [2]: 634 x10_4/ul
- Ret [2]: 8.2%
- WBC [2]: 98.8 x10_2/uL
- KIDNEY_L [2]: 0.9 g
- KIDNEY_R [2]: 0.9 g
- KIDNEY_TOTAL [2]: 1.8 g
- LIVER [2]: 9.5 g
- ALP [2]: 787 IU/L
- ALT [2]: 31.8 IU/L
- AST [2]: 62.2 IU/L
- BUN [2]: 11.2 mg/dL
- CRE [2]: 0.4 mg/dL
- Ca [2]: 11.1 mg/dL
- DBIL [2]: 0.032 mg/dL
- GLC [2]: 185.4 mg/dL
- K [2]: 5 meq/L
- LDH [2]: 96.6 IU/L
- Na [2]: 139 meq/L
- PL [2]: 132 mg/dL
- RALB [2]: 3.8 g/dL
- TBIL [2]: 0.3 mg/dL
- TC [2]: 71.8 mg/dL
- TG [2]: 54.4 mg/dL
- TP [2]: 5.6 g/dL
- gamma-GTP [2]: 0.8 IU/L
- TERMINAL_BW [3]: 204.6 g
- APTT [3]: 16.6 s
- Bas [3]: 0%
- Eos [3]: 1%
- Fbg [3]: 221.2 mg/dL
- Hb [3]: 13.8 g/dL
- Ht [3]: 41.1%
- Lym [3]: 71.4%
- MCH [3]: 21.8 pg
- MCHC [3]: 33.7%
- MCV [3]: 64.8 fL
- Mono [3]: 9.6%
- Neu [3]: 18%
- PT [3]: 12.3 s
- RBC [3]: 633.4 x10_4/ul
- Ret [3]: 7.5%
- WBC [3]: 81.8 x10_2/uL
- KIDNEY_L [3]: 0.9 g
- KIDNEY_R [3]: 0.9 g
- KIDNEY_TOTAL [3]: 1.9 g
- LIVER [3]: 9 g
- ALP [3]: 761 IU/L
- ALT [3]: 28.6 IU/L
- AST [3]: 61.2 IU/L
- BUN [3]: 12.4 mg/dL
- CRE [3]: 0.4 mg/dL
- DBIL [3]: 0.018 mg/dL
- GLC [3]: 197.8 mg/dL
- IP [3]: 11.2 mg/dL
- K [3]: 4.7 meq/L
- Na [3]: 139.2 meq/L
- PL [3]: 136.4 mg/dL
- RALB [3]: 3.8 g/dL
- TBIL [3]: 0.4 mg/dL
- TC [3]: 73 mg/dL
- TG [3]: 48 mg/dL
- TP [3]: 5.7 g/dL
- gamma-GTP [3]: 1.2 IU/L
- TERMINAL_BW [4]: 223.3 g
- APTT [4]: 16.3 s
- Bas [4]: 0.2%
- Eos [4]: 0.8%
- Fbg [4]: 219 mg/dL
- Hb [4]: 13.4 g/dL
- Ht [4]: 39.8%
- Lym [4]: 72%
- MCH [4]: 21.8 pg
- MCHC [4]: 33.6%
- MCV [4]: 65 fL
- Mono [4]: 12.4%
- Neu [4]: 14.8%
- PT [4]: 12 s
- Plat [4]: 110.8 x10_4/uL
- RBC [4]: 613.4 x10_4/ul
- Ret [4]: 8.1%
- WBC [4]: 97 x10_2/uL
- KIDNEY_L [4]: 1 g
- KIDNEY_R [4]: 1 g
- KIDNEY_TOTAL [4]: 2 g
- ALP [4]: 987.2 IU/L
- ALT [4]: 31.2 IU/L
- AST [4]: 63.4 IU/L
- BUN [4]: 18 mg/dL
- CRE [4]: 0.5 mg/dL
- DBIL [4]: 0.02 mg/dL
- GLC [4]: 193.2 mg/dL
- IP [4]: 8.4 mg/dL
- K [4]: 5.1 meq/L
- LDH [4]: 94 IU/L
- Na [4]: 138 meq/L
- PL [4]: 153.4 mg/dL
- RALB [4]: 3.8 g/dL
- TBIL [4]: 0.3 mg/dL
- TC [4]: 81.6 mg/dL
- TG [4]: 99 mg/dL
- TP [4]: 5.7 g/dL
- gamma-GTP [4]: 1.2 IU/L
- TERMINAL_BW (15 mg/kg, 3 h, dose level Low): 213.7 g
